# ChEMBL document CHEMBL1146483, “Antitumor activity of bruceantin: an old drug with new promise” (J Nat Prod, 2004)
# Tests used:
# U-937 = assay: Cytotoxicity against human U937 cells by trypan blue exclusion method; type: functional, cell-based
# NB-4 = assay: Cytotoxicity against human NB4 cells by trypan blue exclusion method; type: functional, cell-based
# Daudi = assay: Cytotoxicity against human Daudi cells by trypan blue exclusion method; type: functional, cell-based
# NCI-H929 = assay: Induction of apoptosis in human NCI-H929 cells after 24 hrs by DAPI staining; type: functional, cell-based; settings: NCI-H929, 24 h
# [1] = Cytotoxicity against human RS4:11 cells by trypan blue exclusion method; type: functional, cell-based
# RPMI-8226 [2] = assay: Antitumor activity in human RPMI8226 cells xenografted in SCID mouse assessed as induction of apoptosis in peripheral proliferating areas at 5 to 12 mg mg/kg, ip administered every 3 days; type: functional
# [3] = Cytotoxicity against human DHL6 cells by trypan blue exclusion method; type: functional, cell-based; settings: SU-DHL-6
# HL-60 [4] = assay: Cytotoxicity against human HL60 cells by trypan blue exclusion method; type: functional, cell-based
# HL-60 [5] = assay: Induction of apoptosis in human HL60 cells after 24 hrs by DAPI staining; type: functional, cell-based; settings: HL-60, 24 h
# [6] = Cytotoxicity against concanavalin-stimulated human lymphocytes cells assessed as cell viability at 50 ng/mL after 4 days by trypan blue exclusion method; type: cell-based, Lymphocyte; settings: read-out: Activity
# Kasumi 1 = assay: Cytotoxicity against human Kasumi-1 cells by trypan blue exclusion method; type: functional, cell-based
# K562 = assay: Cytotoxicity against human K562 cells assessed as cell viability at 50 ng/mL after 4 days by trypan blue exclusion method; type: functional; settings: K562, 96 h, read-out: Activity
# U-266 = assay: Induction of apoptosis in human U266 cells after 24 hrs by DAPI staining; type: functional, cell-based; settings: U-266, 24 h
# [7] = Cytotoxicity against human SUP-B13 cells by trypan blue exclusion method; type: functional, cell-based
# REH = assay: Cytotoxicity against human REH cells by trypan blue exclusion method; type: functional, cell-based
# RPMI-8226 [8] = assay: Induction of apoptosis in human RPMI8226 cells after 24 hrs by DAPI staining; type: functional, cell-based; settings: RPMI-8226, 24 h
# BV-173 = assay: Cytotoxicity against human BV173 cells by trypan blue exclusion method; type: functional, cell-based
structure (smiles),measurement,setting,value
COC(=O)[C@@]12OC[C@]34[C@H]([C@@H](O)[C@@H]1O)[C@@]1(C)CC(=O)C(O)=C(C)[C@@H]1C[C@H]3OC(=O)[C@H](OC(=O)/C=C(\C)C(C)C)[C@@H]24 [BRUCEANTIN],IC50,U-937,< 0.015 µg/mL
same,IC50,NB-4,< 0.015 µg/mL
same,IC50,Daudi,< 0.015 µg/mL
same,IC50,NCI-H929,115 nM
same,IC50,[1],< 0.015 µg/mL
same,Activity,RPMI-8226 [2],36.6%
same,IC50,[3],< 0.015 µg/mL
same,IC50,HL-60 [4],0.02 µg/mL
same,IC50,HL-60 [5],12.2 nM
same,"viability at 96 h, 50 ng/mL",[6],90%
same,IC50,Kasumi 1,0.02 µg/mL
same,viability at 0.05 µg/mL,K562,90%
same,IC50,U-266,49 nM
same,IC50,[7],< 0.015 µg/mL
same,IC50,REH,0.02 µg/mL
same,IC50,RPMI-8226 [8],12.8 nM
same,IC50,BV-173,< 0.015 µg/mL
